In patent US20140093942A1, “GENE, ARS-R ANCHORAGE CASSETTE, ARS-R EXPRESSION-ANCHORAGE CASSETTE, RECOMBINANT PLASMID, BACTERIAL TRANSGENIC LINEAGE, USE OF SAID GENE, USE OF SAID LINEAGE IN ENVIRONMENTAL BIOREMEDIATION PROCESSES” (UNIVERSIDADE DE SÃO PAULO - USP, priority 2012, published 2014):

Columns and labels:
[1] = test system: E. coli UT5600; assay: Minimal Inhibitory Concentration (MIC) of Na3As04, wild type E. coli UT5600; type: cell-based, Escherichia coli; settings: Na3As04 0-50 mM, 28° C., 48 h, OD600
Procedure: (§1) Panel C illustrates the comparison between the growth levels of E. coli wild type and recombinant cells in the presence of different concentrations of Na3As04 ranging from 0-50 mM. After incubation at 28° C. for 48 h, the bacterial growth was measured by reading the absorbance at 600 nm (OD600) in a spectrophotometer.
(§2) To find out whether the recombinant E. coli UT5600/pCM-As lineage had increased resistance to arsenate ions, as compared to the UT5600 lineage from which it is derived, the MIC against Na3As04 of each of the lineages was determined.
(§3) The final bacterial growth in different Na3As04 concentrations was quantified by Absorbance reading at 600 ηm (FIG. 10C). The assays were performed in triplicate, showing similar results.

[2] = test system: E. coli UT5600/pCM-As; assay: Minimal Inhibitory Concentration (MIC) of Na3As04, recombinant E. coli UT5600/pCM-As; type: cell-based, Escherichia coli; settings: Na3As04 0-50 mM, 28° C., 48 h, OD600
Procedure: as §1, §2, §3

[3] = test system: C. metallidurans CH34; assay: Minimal Inhibitory Concentration (MIC) of Na3As04, wild type C. metallidurans CH34; type: cell-based, Cupriavidus metallidurans; settings: Na3As04 0-1,000 mM, 28° C., 48 h, OD600
Procedure: After incubation at 28° C. for 48 h, the bacterial growth was measured by reading the absorbance at 600 nm (OD600) in a spectrophotometer.
The MIC of C. metallidurans CH34 and C. metallidurans CH34/pCM-As cells against As5+ ions were also studied. […] The MIC of Na3As04 for C. metallidurans CH34/pCM-As was above 1,000 mM, indicating an increase in survivability to As5+ ions above 100% (FIG. 11B). The bacterial growth for the MIC assays was quantified by Absorbance reading at 600 nm (FIG. 11C). The assays were performed in triplicate, showing similar results.

sodium arsenate [Na3As04] was tested, and the “Minimum Inhibitory Concentration (MIC)” value [1] was 25 mM, the “Minimum Inhibitory Concentration (MIC)” value [2] was 50 mM and the “Minimum Inhibitory Concentration (MIC)” value [3] was 500 mM.
